According to ChEMBL document CHEMBL1201862, “PubChem BioAssay data set” (2004):
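Following 48 hours of exposure in 96-well plates, responses at five concentrations were used to interpolate endpoints linearly. Here, GI50 denotes the concentration required for 50% inhibition of growth.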 The source made the active and inactive calls. Rule as the data show it: active = GI50 up to about 1.1 µM and inactive = higher. *1 amine or outer side, *2 acyl side, *3 side chain or, on linkers, in order; H or OH if unused. Where a SMILES comes first, the peptide text is derived from it. Residues, ends and D or L forms follow the SMILES beside them. Bridges are numbered along the chain shown (N, C = ends). [ ]: non-standard residue; d: D form. The star is where a group is joined. ξ: configuration not given here. *: point of attachment. ξOrn(4,5-diOH) = O=C(C(CC(O)C(O)N[*:3])N[*:1])[*:2]; ξhTyr(βξ-OH,γξ-OH) = NC(C(=O)O)C(O)C(O)c1ccc(O)cc1; ξPro(3ξ-OH,4ξ-Me) = CC1CNC(C(=O)O)C1O; X55 = CCCCC/C=C/C/C=C\CCCCCCCC(=O)*; Ethyl(2-NMe3+) = C[N+](C)(C)CC*; Hyp = O=C(O)[CH]1C[CH](O)CN1; Boc = CC(C)(C)OC(=O)*

Columns and labels:
Assay in all cases: NCI tumour cell line growth inhibition, 48 h
OVCAR-5 = tested on: OVCAR-5
NCI-H522 = tested on: NCI-H522
UACC-257 = tested on: UACC-257
SF-268 = tested on: SF-268
OVCAR-3 = tested on: OVCAR-3
K562 = tested on: K562
SW-620 = tested on: SW-620
DU-145 = tested on: DU-145
OVCAR-8 = tested on: OVCAR-8
EKVX = tested on: EKVX
HT-29 = tested on: HT-29
RPMI-8226 = tested on: RPMI-8226
HOP-92 = tested on: HOP-92
SNB-19 = tested on: SNB-19
CAKI-1 = tested on: CAKI-1
HCC 2998 = tested on: HCC 2998
SK-OV-3 = tested on: SK-OV-3
T47D = tested on: T47D
PC-3 = tested on: PC-3
SR = tested on: SR

SMILES	GI50 (OVCAR-5)	GI50 (NCI-H522)	GI50 (UACC-257)	GI50 (SF-268)	GI50 (OVCAR-3)	GI50 (K562)	GI50 (SW-620)	GI50 (DU-145)	GI50 (OVCAR-8)	GI50 (EKVX)	GI50 (HT-29)	GI50 (RPMI-8226)	GI50 (HOP-92)	GI50 (SNB-19)	GI50 (CAKI-1)	GI50 (HCC 2998)	GI50 (SK-OV-3)	GI50 (T47D)	GI50 (PC-3)	GI50 (SR)
CC1=NN(c2ccccc2)C(=O)/C1=C1\SC(c2ccccc2)(c2ccccc2)c2ccccc21	> 100 µM (inactive)	> 100 µM (inactive)	> 100 µM (inactive)	> 100 µM (inactive)	> 100 µM (inactive)	> 100 µM (inactive)	> 100 µM (inactive)	> 100 µM (inactive)	> 100 µM (inactive)	> 100 µM (inactive)	67.9 µM (inactive)	> 100 µM (inactive)	> 100 µM (inactive)	> 100 µM (inactive)	> 100 µM (inactive)	> 100 µM (inactive)	> 100 µM (inactive)	> 100 µM (inactive)	> 100 µM (inactive)	
CCCCC/C=C/C/C=C\CCCCCCCC(=O)NC1CC(O)C(O)NC(=O)C2C(O)C(C)CN2C(=O)C(C(C)O)NC(=O)C(C(O)C(O)c2ccc(O)cc2)NC(=O)C2CC(O)CN2C(=O)C(C(C)O)NC1=O (stereo not drawn) (X55-[ξOrn(4,5-diOH)]T[Hyp][ξhTyr(βξ-OH,γξ-OH)]T[ξPro(3ξ-OH,4ξ-Me)]; lactam 1-C; configuration not given here)	> 100 µM (inactive)	> 100 µM (inactive)	> 100 µM (inactive)	> 100 µM (inactive)	> 100 µM (inactive)	> 100 µM (inactive)	> 100 µM (inactive)	> 100 µM (inactive)	> 100 µM (inactive)	> 100 µM (inactive)	> 100 µM (inactive)	> 100 µM (inactive)	> 100 µM (inactive)	> 100 µM (inactive)	> 100 µM (inactive)	> 100 µM (inactive)		> 100 µM (inactive)	> 100 µM (inactive)	> 100 µM (inactive)
OCCSCc1cc2c(O)c(c1)Cc1cc(CSCCO)cc(c1O)Cc1cc(CSCCO)cc(c1O)Cc1cc(CSCCO)cc(c1O)C2	5.6 µM (inactive)	2.18 µM (inactive)	4.23 µM (inactive)	2.88 µM (inactive)	1.73 µM (inactive)	7.28 µM (inactive)	3.92 µM (inactive)	4.91 µM (inactive)	5.09 µM (inactive)	15 µM (inactive)	2.88 µM (inactive)	3.95 µM (inactive)	4.26 µM (inactive)	4.69 µM (inactive)	3.1 µM (inactive)	9.38 µM (inactive)	8.47 µM (inactive)	6.47 µM (inactive)	3.51 µM (inactive)	
NC(=O)CNC(=O)[C@@H]1C[C@@H](OCCC(=O)O)CN1C(=O)OCc1ccccc1	> 100 µM (inactive)	> 100 µM (inactive)	> 100 µM (inactive)	> 100 µM (inactive)	> 100 µM (inactive)	> 100 µM (inactive)	> 100 µM (inactive)	> 100 µM (inactive)	> 10 µM (inactive)	> 100 µM (inactive)	> 100 µM (inactive)	> 100 µM (inactive)		> 100 µM (inactive)			> 100 µM (inactive)	> 100 µM (inactive)	> 100 µM (inactive)	> 100 µM (inactive)
O=C(O)c1ccc(SSc2ccc(C(=O)O)cn2)nc1	> 100 µM (inactive)	> 100 µM (inactive)	> 100 µM (inactive)	> 100 µM (inactive)	> 100 µM (inactive)	> 100 µM (inactive)	> 100 µM (inactive)	> 100 µM (inactive)	> 100 µM (inactive)	> 100 µM (inactive)	> 100 µM (inactive)	> 100 µM (inactive)	> 100 µM (inactive)	> 100 µM (inactive)	> 100 µM (inactive)		> 100 µM (inactive)	> 100 µM (inactive)	> 100 µM (inactive)	> 100 µM (inactive)
CC(NC(=O)C(Cc1ccc(OCC[N+](C)(C)C)cc1)NC(=O)OC(C)(C)C)C(=O)NC(Cc1ccccc1)C(=O)NCC(N)=O (stereo unspecified) (Boc-Y(Ethyl(2-NMe3+))AFG-NH2; configuration not given here)	25.1 µM (inactive)	36.9 µM (inactive)	45.2 µM (inactive)	10.1 µM (inactive)	18.2 µM (inactive)	> 100 µM (inactive)	> 100 µM (inactive)	36.1 µM (inactive)	12 µM (inactive)		> 100 µM (inactive)	> 100 µM (inactive)	15.7 µM (inactive)	13.2 µM (inactive)	87.1 µM (inactive)	16.5 µM (inactive)	10 µM (inactive)	43.8 µM (inactive)	> 100 µM (inactive)	
CCOc1cc2c(cc1O)C(=O)C[C@@H]1[C@@H]2CC[C@]2(C)[C@@H](O)CC[C@@H]12	20.6 µM (inactive)	0.0508 µM (active)	1.21 µM (inactive)	0.308 µM (active)	0.092 µM (active)	0.0362 µM (active)	0.126 µM (active)	0.337 µM (active)	0.321 µM (active)	10.1 µM (inactive)	6.87 µM (inactive)	0.154 µM (active)	9.06 µM (inactive)	0.189 µM (active)	0.164 µM (active)	1.36 µM (inactive)	0.463 µM (active)	0.13 µM (active)	2.71 µM (inactive)	
O/N=C\c1c2c(cc3c1CCC3)CCC2	> 100 µM (inactive)	> 100 µM (inactive)	> 100 µM (inactive)	> 100 µM (inactive)	> 100 µM (inactive)	> 100 µM (inactive)	> 100 µM (inactive)	> 100 µM (inactive)	> 100 µM (inactive)	> 100 µM (inactive)	> 100 µM (inactive)	> 100 µM (inactive)		> 100 µM (inactive)	> 100 µM (inactive)	> 100 µM (inactive)	> 100 µM (inactive)	49.5 µM (inactive)	> 100 µM (inactive)	> 100 µM (inactive)
O=[As](O)(O)c1ccc2nc3cc([As](=O)(O)O)ccc3nc2c1	> 100 µM (inactive)	> 100 µM (inactive)	> 100 µM (inactive)	> 100 µM (inactive)	> 100 µM (inactive)	> 100 µM (inactive)	> 100 µM (inactive)	> 100 µM (inactive)	> 100 µM (inactive)	> 100 µM (inactive)	> 100 µM (inactive)		> 100 µM (inactive)	> 100 µM (inactive)	> 100 µM (inactive)	> 100 µM (inactive)		> 100 µM (inactive)	> 100 µM (inactive)	> 100 µM (inactive)
NC(=O)c1nnc2cc(F)ccc2c1N	> 100 µM (inactive)	46.3 µM (inactive)	> 100 µM (inactive)	> 100 µM (inactive)	> 100 µM (inactive)	> 100 µM (inactive)	> 100 µM (inactive)	> 100 µM (inactive)	> 100 µM (inactive)	85.7 µM (inactive)	> 100 µM (inactive)	> 100 µM (inactive)		> 100 µM (inactive)	91.2 µM (inactive)	> 100 µM (inactive)	85.5 µM (inactive)	> 100 µM (inactive)	> 100 µM (inactive)	> 100 µM (inactive)
C/C(=C\COP(=O)(O)OP(=O)(O)O)CC/C=C(\C)CNc1ccccc1	> 50 µM (inactive)	> 50 µM (inactive)	43 µM (inactive)	> 50 µM (inactive)		> 50 µM (inactive)	> 50 µM (inactive)	> 50 µM (inactive)	> 50 µM (inactive)	> 50 µM (inactive)	> 50 µM (inactive)	0.005 µM (active)		48.1 µM (inactive)	> 50 µM (inactive)		> 50 µM (inactive)	27.4 µM (inactive)	> 50 µM (inactive)	0.0893 µM (active)
C=CCOCn1cc(C)c(=O)[nH]c1=O		29.6 µM (inactive)	> 100 µM (inactive)	> 100 µM (inactive)		> 100 µM (inactive)	> 100 µM (inactive)	> 100 µM (inactive)	> 100 µM (inactive)	> 100 µM (inactive)	> 100 µM (inactive)	> 100 µM (inactive)		> 100 µM (inactive)	> 100 µM (inactive)	> 100 µM (inactive)	> 100 µM (inactive)	> 100 µM (inactive)	> 100 µM (inactive)	> 100 µM (inactive)
CCOP(=O)(CC(=O)C1CC1)OCC	> 100 µM (inactive)	> 100 µM (inactive)	> 100 µM (inactive)	> 100 µM (inactive)		> 100 µM (inactive)	> 100 µM (inactive)	> 100 µM (inactive)	> 100 µM (inactive)	> 100 µM (inactive)	> 100 µM (inactive)			> 100 µM (inactive)	> 100 µM (inactive)	> 100 µM (inactive)	> 100 µM (inactive)	> 100 µM (inactive)	> 100 µM (inactive)	> 100 µM (inactive)
N#CSc1ccc(S(N)(=O)=O)cc1	59.8 µM (inactive)	10.7 µM (inactive)	> 100 µM (inactive)	> 100 µM (inactive)	52.2 µM (inactive)	35.2 µM (inactive)	23.9 µM (inactive)	> 100 µM (inactive)	44.8 µM (inactive)	> 100 µM (inactive)	82 µM (inactive)	26.5 µM (inactive)	> 100 µM (inactive)	> 100 µM (inactive)	56.5 µM (inactive)	> 100 µM (inactive)	> 100 µM (inactive)	31.8 µM (inactive)	48 µM (inactive)	
